Patent US20250170104A1, “INHIBITORS OF PSEUDOMONAS AERUGINOSA VIRULENCE FACTOR Lasß” (priority 2022, published 2025)
Values after ≈ are worked out from the molar mass of the structure shown. Read-outs that look alike come from different tables or passages of the source.

Columns and labels:
LasB = LasB (Pseudomonas aeruginosa (strain ATCC 15692 / DSM 22644 / CIP 104116 / JCM 14847 / LMG 12228 / 1C / PRS 101 / PAO1), UniProt P14756); experiment: In vitro LasB activity assay (fluorogenic substrate); format: biochemical; details: LasB 0.3 nM, substrate 150 μM, mean ± SD
Sequence of LasB (P14756 198-498): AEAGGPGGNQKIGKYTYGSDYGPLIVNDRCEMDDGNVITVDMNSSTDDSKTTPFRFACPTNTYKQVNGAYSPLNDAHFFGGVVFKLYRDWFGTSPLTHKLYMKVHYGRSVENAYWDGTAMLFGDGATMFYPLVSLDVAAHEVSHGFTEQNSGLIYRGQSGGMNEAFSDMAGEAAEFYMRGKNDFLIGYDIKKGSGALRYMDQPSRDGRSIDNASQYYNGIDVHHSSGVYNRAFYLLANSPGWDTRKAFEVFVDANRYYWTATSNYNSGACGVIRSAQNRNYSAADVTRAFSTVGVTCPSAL
Method: The LasB activity assay was performed as described previously (Nishino N, Powers J C. Pseudomonas aeruginosa elastase. Development of a new substrate, inhibitors, and an affinity ligand. J Biol Chem. 1980 Apr. 25; 255(8):3482-6) using the fluorogenic substrate 2-Aminobenzoyl-L-Alanyl-Glycyl-L-Leucyl-L-Alanyl-para-Nitro-Benzyl-Amide, purchased from Peptides International (Louisville, KY, USA) and vivitide, LLC (Gardner, MA, USA).
Fluorescence intensity was measured for 60 min at 37° C. in black 384-well microtiter plates (Greiner BioOne, Kremsmünster, Austria) using a CLARIOstar microplate reader (BMG Labtech, Ortenberg, Germany) with an excitation wavelength of […] and an emission wavelength of 415±20 nm. The assay was performed in a final volume of 50 μL of assay buffer (50 mM Tris, pH 7.2, 2.5 mM CaCl2), 0.075% Pluronic F-127, 5% DMSO) containing LasB at a final concentration of […] 0.3 nM and the substrate at 150 μM. Before substrate addition, compounds were preincubated with the enzyme at 37° C. for 15 min. Experiments were performed in duplicates and repeated for at least two times. Blank controls without enzyme were performed. After blank subtraction, the slope of samples containing inhibitors (v) was divided by the slope of a simultaneously started uninhibited enzymatic reaction (v0). IC50 values were determined with nonlinear regression using GraphPad Prism 5 (Graph Pad Software, San Diego, CA, USA) and are given as mean values ±standard deviation (SD). The slope factor was constrained to 1.

ADAM-17 (TACE) = ADAM-17 (TACE) (Homo sapiens (Human), UniProt P78536); experiment: ADAM-17 (TACE) inhibitor screening assay; format: biochemical; details: read-out: Selectivity IC50 TACE
Sequence of ADAM-17 (TACE) (P78536 whole entry, looked up): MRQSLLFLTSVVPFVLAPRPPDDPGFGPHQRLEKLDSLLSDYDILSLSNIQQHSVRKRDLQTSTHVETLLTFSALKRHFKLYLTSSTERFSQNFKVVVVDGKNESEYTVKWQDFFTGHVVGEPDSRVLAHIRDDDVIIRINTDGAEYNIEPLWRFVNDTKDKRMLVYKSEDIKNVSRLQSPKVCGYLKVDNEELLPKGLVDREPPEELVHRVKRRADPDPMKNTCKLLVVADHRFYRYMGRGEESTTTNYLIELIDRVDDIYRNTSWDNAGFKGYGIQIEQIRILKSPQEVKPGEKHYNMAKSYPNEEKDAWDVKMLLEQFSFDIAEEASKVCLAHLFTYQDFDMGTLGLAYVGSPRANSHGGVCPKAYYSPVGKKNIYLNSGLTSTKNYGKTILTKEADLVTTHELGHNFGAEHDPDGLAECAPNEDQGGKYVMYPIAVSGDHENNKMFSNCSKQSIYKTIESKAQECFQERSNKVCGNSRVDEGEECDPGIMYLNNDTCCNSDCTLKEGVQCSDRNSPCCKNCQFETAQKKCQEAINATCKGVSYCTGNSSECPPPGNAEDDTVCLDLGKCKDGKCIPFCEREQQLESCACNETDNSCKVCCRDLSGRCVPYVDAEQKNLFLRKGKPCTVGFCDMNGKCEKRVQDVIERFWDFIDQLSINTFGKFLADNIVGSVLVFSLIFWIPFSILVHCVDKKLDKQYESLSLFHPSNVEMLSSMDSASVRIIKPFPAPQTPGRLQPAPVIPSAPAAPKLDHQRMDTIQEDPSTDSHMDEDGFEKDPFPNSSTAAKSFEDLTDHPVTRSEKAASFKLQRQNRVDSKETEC
Method: The ADAM-17 (TACE) Inhibitor Screening Assay Kit was purchased from Sigma-Aldrich. The assay was performed according to the guidelines of the manufacturer using ilomastat as a positive control. Fluorescence signals were measured in a CLARIOstar plate reader (BMG Labtech).

[1] = Kinetic turbidimetric solubility assay; format: physicochemical; details: PBS
Method: The desired compounds were sequentially diluted in DMSO in a 96-well plate. 1.5 μL of each well were transferred into another 96-well plate and mixed with 148.5 μL of PBS. Plates were shaken for 5 min at 600 rpm at room temperature, and the absorbance at 620 nm was measured. Absorbance values were normalized by blank subtraction and plotted using GraphPad Prism 8.4.2 (GraphPad Software, San Diego, CA, USA). Solubility (S) was determined based on the First X value of AUC function using a threshold of 0.005.

P. aeruginosa PA-14 = experiment: MIC determination assay / antibacterial activity; format: cell-based; details: Pseudomonas aeruginosa, PA14
Method: Assays regarding the determination of the minimum inhibitory concentration (MIC) were performed as described previously (Elgaher W A M, Fruth M, Groh M, Haupenthal J, Hartmann R W. Expanding the scaffold for bacterial RNA polymerase inhibitors: design, synthesis and structure-activity relationships of ureido-heterocyclic-carboxylic acids. RSC Adv. 2013 Dec. 3; 4(5):2177-94). The experiments were based on the P. aeruginosa strain PA14. For the case that no MIC value could be determined due to activity reasons, percentage (%) inhibition at 100 μM (or lower, depending on the solubility of the compounds) was calculated. The OD600 was measured 0 and 16 h after inhibitor addition in a CLARIOstar Platereader (BMG Labtech, Ortenberg, Germany).

HDAC8 = HDAC8 (Homo sapiens (Human), UniProt Q9BY41); experiment: HDAC inhibition; format: biochemical; details: read-out: Selectivity IC50 HDAC8
Method: (§1) HDAC3 and HDAC8 Inhibitor Screening Assay kits were purchased from Sigma-Aldrich. The assay was performed according to the guidelines of the manufacturer using trichostatin as a positive control. Fluorescence signals were measured in a CLARIOstar plate reader (BMG Labtech).

HDAC3 = HDAC3 (Homo sapiens (Human), UniProt O15379); experiment: HDAC inhibition; format: biochemical; details: read-out: Selectivity IC50 HDAC3
Sequence of HDAC3 (O15379 whole entry, looked up): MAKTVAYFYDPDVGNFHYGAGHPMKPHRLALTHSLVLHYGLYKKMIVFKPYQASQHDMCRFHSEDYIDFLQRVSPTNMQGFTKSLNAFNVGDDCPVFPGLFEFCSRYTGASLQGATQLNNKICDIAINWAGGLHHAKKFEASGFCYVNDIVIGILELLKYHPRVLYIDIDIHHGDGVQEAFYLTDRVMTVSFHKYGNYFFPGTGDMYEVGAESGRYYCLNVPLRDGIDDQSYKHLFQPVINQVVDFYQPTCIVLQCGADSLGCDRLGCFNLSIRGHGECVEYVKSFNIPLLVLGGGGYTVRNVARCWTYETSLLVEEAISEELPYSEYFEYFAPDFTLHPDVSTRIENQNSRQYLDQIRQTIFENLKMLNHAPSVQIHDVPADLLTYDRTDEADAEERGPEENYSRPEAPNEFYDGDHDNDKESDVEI
Sequence of HDAC3 (Q9Y618 whole entry partner, looked up): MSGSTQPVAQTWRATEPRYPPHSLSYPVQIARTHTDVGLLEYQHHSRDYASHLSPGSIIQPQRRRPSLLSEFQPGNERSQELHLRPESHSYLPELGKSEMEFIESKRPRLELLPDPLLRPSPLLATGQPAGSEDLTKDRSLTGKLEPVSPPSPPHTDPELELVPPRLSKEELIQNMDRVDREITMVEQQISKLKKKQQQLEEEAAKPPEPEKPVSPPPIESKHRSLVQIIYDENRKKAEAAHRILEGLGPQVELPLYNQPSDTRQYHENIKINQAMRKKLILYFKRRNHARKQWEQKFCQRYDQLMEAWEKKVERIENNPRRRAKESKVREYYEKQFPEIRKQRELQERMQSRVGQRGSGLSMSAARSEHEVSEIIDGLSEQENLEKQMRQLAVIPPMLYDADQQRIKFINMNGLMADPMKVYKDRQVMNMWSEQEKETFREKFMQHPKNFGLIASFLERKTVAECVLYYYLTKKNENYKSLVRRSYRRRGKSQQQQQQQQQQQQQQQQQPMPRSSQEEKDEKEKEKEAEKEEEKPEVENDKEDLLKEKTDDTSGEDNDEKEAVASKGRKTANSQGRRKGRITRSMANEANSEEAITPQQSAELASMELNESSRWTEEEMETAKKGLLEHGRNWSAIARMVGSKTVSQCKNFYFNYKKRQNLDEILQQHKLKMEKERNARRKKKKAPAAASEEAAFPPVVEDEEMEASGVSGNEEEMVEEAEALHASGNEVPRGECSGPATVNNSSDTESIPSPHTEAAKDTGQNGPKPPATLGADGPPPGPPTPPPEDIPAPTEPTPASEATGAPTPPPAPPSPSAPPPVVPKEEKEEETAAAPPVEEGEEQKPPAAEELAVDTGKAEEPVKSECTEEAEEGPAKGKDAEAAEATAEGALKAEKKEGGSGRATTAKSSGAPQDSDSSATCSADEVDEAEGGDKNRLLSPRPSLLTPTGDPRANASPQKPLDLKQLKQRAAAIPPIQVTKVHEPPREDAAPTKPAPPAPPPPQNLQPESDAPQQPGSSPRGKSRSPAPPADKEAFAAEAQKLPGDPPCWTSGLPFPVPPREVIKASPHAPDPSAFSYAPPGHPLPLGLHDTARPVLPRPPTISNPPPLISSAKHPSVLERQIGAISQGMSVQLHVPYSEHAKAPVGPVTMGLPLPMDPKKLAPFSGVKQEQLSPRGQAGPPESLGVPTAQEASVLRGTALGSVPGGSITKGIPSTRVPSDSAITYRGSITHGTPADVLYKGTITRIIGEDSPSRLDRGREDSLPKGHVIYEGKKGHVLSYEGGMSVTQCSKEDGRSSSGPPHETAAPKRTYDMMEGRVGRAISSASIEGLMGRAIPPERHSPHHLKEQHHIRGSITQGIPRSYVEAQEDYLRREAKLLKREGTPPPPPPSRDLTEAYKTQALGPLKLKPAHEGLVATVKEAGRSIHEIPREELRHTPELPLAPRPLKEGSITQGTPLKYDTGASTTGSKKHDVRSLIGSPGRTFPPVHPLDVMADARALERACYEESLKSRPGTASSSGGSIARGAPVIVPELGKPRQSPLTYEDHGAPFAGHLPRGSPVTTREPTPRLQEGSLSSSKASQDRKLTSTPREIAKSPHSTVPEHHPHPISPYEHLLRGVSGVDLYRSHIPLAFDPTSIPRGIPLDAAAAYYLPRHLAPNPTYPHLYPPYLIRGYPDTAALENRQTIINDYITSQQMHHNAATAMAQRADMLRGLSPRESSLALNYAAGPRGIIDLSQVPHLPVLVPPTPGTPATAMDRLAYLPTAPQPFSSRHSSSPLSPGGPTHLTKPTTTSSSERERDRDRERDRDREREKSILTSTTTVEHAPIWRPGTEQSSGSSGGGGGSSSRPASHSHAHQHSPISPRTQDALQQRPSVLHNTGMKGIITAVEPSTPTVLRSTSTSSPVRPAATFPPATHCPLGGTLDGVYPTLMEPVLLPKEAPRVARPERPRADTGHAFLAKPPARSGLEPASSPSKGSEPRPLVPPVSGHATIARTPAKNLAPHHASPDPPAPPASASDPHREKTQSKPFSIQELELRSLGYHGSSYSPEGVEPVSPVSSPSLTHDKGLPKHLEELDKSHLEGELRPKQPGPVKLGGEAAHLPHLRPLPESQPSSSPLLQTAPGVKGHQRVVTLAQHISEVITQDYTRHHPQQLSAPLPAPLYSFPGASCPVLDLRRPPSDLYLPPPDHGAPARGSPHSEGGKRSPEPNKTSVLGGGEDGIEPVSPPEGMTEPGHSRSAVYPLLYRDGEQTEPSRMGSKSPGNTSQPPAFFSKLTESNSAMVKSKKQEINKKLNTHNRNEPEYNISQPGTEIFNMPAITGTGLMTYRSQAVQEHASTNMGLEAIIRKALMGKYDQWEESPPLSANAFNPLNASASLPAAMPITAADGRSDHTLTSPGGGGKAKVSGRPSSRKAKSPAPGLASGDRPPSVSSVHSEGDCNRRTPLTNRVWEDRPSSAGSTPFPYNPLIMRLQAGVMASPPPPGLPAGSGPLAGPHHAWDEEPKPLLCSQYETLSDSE
Method: as §1

MMP1 = MMP1 (Homo sapiens (Human), UniProt P03956); experiment: Selectivity assay: inhibition of MMPs; format: biochemical
Sequence of MMP1 (P03956 100-469): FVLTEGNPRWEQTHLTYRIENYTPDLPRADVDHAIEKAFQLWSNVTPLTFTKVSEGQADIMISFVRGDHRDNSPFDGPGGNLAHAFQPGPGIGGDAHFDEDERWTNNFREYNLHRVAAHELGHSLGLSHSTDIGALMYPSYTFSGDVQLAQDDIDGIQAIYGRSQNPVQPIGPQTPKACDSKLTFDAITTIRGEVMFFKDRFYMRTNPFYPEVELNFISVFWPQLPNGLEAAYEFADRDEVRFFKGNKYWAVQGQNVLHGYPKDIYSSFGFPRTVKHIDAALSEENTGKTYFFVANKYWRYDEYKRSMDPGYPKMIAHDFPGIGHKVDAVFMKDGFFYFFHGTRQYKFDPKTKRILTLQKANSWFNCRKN
Method: (§2) MMPs-1, -2, -3, -7, -8 and -14 along with the SensoLyte 520 Generic MMP Activity Kit*Fluorimetric* were purchased from AnaSpec (Fremont, CA, USA). The assay was performed as described previously (Schönauer E, Kany A M, Haupenthal J, Hüsecken K, Hoppe I J, Voos K, et al. Discovery of a Potent Inhibitor Class with High Selectivity toward Clostridial Collagenases. J Am Chem Soc. 2017 Sep. 13; 139(36):12696-703) using batimastat as a positive control according to the guidelines of the manufacturer.

MMP3 = MMP3 (Homo sapiens (Human), UniProt P08254); experiment: Selectivity assay: inhibition of MMPs; format: biochemical
Method: as §2

MMP2 = MMP2 (Homo sapiens (Human), UniProt P08253); experiment: Selectivity assay: inhibition of MMPs; format: biochemical
Sequence of MMP2 (P08253 110-660): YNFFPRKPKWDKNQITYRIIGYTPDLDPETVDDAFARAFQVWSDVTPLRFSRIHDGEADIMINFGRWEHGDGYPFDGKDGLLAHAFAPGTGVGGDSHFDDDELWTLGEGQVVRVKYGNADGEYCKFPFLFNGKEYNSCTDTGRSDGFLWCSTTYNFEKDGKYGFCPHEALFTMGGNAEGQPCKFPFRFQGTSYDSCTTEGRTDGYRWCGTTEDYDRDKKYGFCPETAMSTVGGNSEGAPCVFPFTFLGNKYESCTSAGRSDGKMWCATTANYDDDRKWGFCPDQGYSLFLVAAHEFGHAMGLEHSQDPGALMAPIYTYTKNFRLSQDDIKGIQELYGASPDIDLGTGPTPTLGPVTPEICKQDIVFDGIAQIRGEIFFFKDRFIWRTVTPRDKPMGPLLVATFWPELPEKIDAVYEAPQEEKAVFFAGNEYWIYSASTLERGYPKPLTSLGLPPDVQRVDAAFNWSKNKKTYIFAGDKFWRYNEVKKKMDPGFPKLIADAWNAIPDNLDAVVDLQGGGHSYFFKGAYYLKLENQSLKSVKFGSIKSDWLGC
Method: as §2

Cytotoxicity assay = format: cell-based; details: human
Method: HepG2, HEK293 or A549 cells (2×10^5 cells per well) were seeded in 24-well, flat-bottomed plates. Culturing of cells, incubations, and OD measurements were performed as described previously (Int. J. Cancer 2007, 121, 206-210). Twenty-four hours after seeding the cells, the incubation was started by the addition of test compound in a final DMSO concentration of 1%. The living cell mass was determined after 48 h. At least two independent measurements were performed for each compound.

in vitro = in vitro ADME; details: mouse, s9
Method: For the evaluation of combined phase I and phase II metabolic stability, the compound (1 μM) was incubated with 1 mg/mL pooled liver S9 fraction (Xenotech), 2 mM NADPH, 1 mM UDPGA, 10 mM MgCl2, 5 mM GSH and 0.1 mM PAPS at 37° C. for 0, 5, 15, 30 and 60 min. The metabolic stability of Testosterone (1 μM), verapamil (1 μM) and ketoconazol (1 μM) were determined in parallel to confirm the enzymatic activity of the S9 fraction. The incubation was stopped by precipitation of S9 enzymes with 2 volumes of cold acetonitrile containing internal standard (150 nM Diphenhydramine). Samples were stored on ice for 10 min and precipitated protein was removed by centrifugation (15 min, 4° C., 4,000 rpm). The remaining test compound at different time points was analyzed by LC-MS/MS (TSQ Quantum Access MAX, Thermo Fisher, Dreieich, Germany) and used to determine half-life (t½).

purified LasB = purified LasB (Pseudomonas aeruginosa (strain ATCC 15692 / DSM 22644 / CIP 104116 / JCM 14847 / LMG 12228 / 1C / PRS 101 / PAO1), UniProt P14756); experiment: Ex vivo lung homogenate assay with purified LasB; format: biochemical
Method: The lung homogenate was prepared from pig lung, which was stored at −80° C. After thawing the lung tissue was cut into pieces of approximately 1.5 cm diameter and 0.5 to 1 cm thickness. Subsequently the bits were flash frozen in liquid nitrogen and lyophilized for 48 h.
1.2 g dried tissue was then ball milled using an IKA Tube Drive and the respective 50 mL ball milling tubes. 20 steel balls were used with target rpm of 6000, reversing the spinning direction every 30 seconds for a total of 10 min. After 10 min the tube was detached and inverted to loosen the powder. The ball milling was repeated with the same setup twice again.
To the powdery tissue 50 mL of a 10 mM Tris buffer including 2 mM CaCl2 with a pH of 8.0 was added and the IKA Tube Drive used again with the same settings as described before for 10 min to disperse the tissue powder in the aqueous buffer. The yielded lung homogenate was pipetted into 15 mL falcons and stored at −80° C. until further use.
To perform the LasB activity/inhibition assay a compound dilution was prepared in DMSO yielding a 100 fold concentration of the final concentration in the assay. LasB was diluted from a higher stock solution to a 6 μM stock in the same buffer as used for the lung homogenate. The assay was performed in Eppis. With a stepper pipette 10 μL of the prepared LasB solution was added to the Eppis to yield a final protein concentration of 300 nM. Then 188 μL of thawed lung homogenate was added with a stepper pipette. Finally, 2 μL of the 100 fold compound dilutions were added and mixed by pipetting up and down. The Eppis were incubated at 37° C. with a shaking speed of 1000 rpm for 4 h.
After 4 h, the Eppis were centrifuged at a speed of 14,000 rpm, 4° C. for 10 min to separate the soluble cleaved Elastin fragments from the non-cleaved insoluble part. 100 μL of the obtained supernatant was transferred to new Eppis, and the same volume of concentrated hydrochloric acid added. […]
Peak areas and response ratios were calculated using Xcalibur Quan browser with Amprolium set as internal standard. […]

[2] = aqueous buffer, kinetic from dmso stock

| SMILES | IC50 (LasB) [µM] | IC50 (ADAM-17 (TACE)) [µM] | solubility at 5 min [1, 2] [µM] | IC50 (P. aeruginosa PA-14) [µM] | IC50 (HDAC8) [µM] | IC50 (HDAC3) [µM] | IC50 (MMP1) [µM] | IC50 (MMP3) [µM] | IC50 (MMP2) [µM] | IC50 at 48 h (Cytotoxicity assay; A549 cells) [µM] | IC50 at 48 h (Cytotoxicity assay; HEK293 cells) [µM] | IC50 at 48 h (Cytotoxicity assay; HepG2 cells) [µM] | half-life at 1 μM (in vitro) [min] | IC50 (purified LasB) [µM] | IC50 (purified LasB; pig lung homogenate, 300 nM LasB, 4 h, desmosine LC-MSMS, read-out: IC50 ex vivo lung homogenate) [µM] | IC50 (MMP1; read-out: Selectivity IC50 MMP1) [µM] | solubility at 5 min [1] [µM] |
| --- | --- | --- | --- | --- | --- | --- | --- | --- | --- | --- | --- | --- | --- | --- | --- | --- | --- |
| CC(C)CC(C(=O)NO)C(=O)Nc1ccc(Cn2cc(CNS(=O)(=O)c3ccc(F)cc3)nn2)cc1 (centres unmarked) [Compound 160, N-[4-[[4-[[(4-Fluorophenyl)sulfonylamino]methyl]triazol-1-yl]methyl]phenyl]-2-(hydroxycarbamoyl)-4-methyl-pentanamide] | 0.0038 ± 0.0001 | > 100 | > 200 | > 100 | > 100 | > 100 | > 100 | > 100 | > 100 | > 100 | > 100 | > 100 | 65.5 ± 0.7 |  |  |  |  |
| CC(C)CC(C(=O)NO)C(=O)Nc1ccc(Cn2cc(CNS(=O)(=O)c3ccc(Cl)cc3)nn2)cc1 (centres unmarked) [Compound 161, N-[4-[[4-[[(4-Chlorophenyl)sulfonylamino]methyl]triazol-1-yl]methyl]phenyl]-2-(hydroxycarbamoyl)-4-methyl-pentanamide] | 0.0017 ± 0.0001 |  | > 200 |  |  |  |  |  |  |  |  |  | 33.9 ± 1 | 0.186 |  |  |  |
| CC(C)C(C(=O)NO)C(=O)Nc1ccc(Cn2cc(CNS(=O)(=O)c3ccc(I)cc3)nn2)cc1 (centres unmarked) [Compound 182, 2-(Hydroxycarbamoyl)-N-[4-[[4-[[(4-iodophenyl)sulfonylamino]methyl]triazol-1-yl]methyl]phenyl]-3-methyl-butanamide] | 0.0019 ± 0.0001 |  |  |  |  |  |  |  |  |  |  |  |  |  | 0.127 |  |  |
| CC(C)CC(C(=O)NO)C(=O)Nc1ccc(CN=[N+]=[N-])cc1 (centres unmarked) [Compound Z9, N-[4-(Azidomethyl)phenyl]-2-(hydroxycarbamoyl)-4-methyl-pentanamide] | 0.0169 ± 0.0006 | 1.6 ± 0.2 |  | > 100 | > 100 | > 100 |  | > 100 | > 100 | > 100 | > 100 | > 100 |  |  |  | > 100 |  |
| CC(C)CC(C(=O)NO)C(=O)Nc1ccc(Cn2cc(CNS(=O)(=O)c3ccc(I)cc3)nn2)cc1 (centres unmarked) [Hit L1, 2-(Hydroxycarbamoyl)-N-[4-[[4-[[(4-iodophenyl)sulfonylamino]methyl]triazol-1-yl]methyl]phenyl]-4-methyl-pentanamide] | 0.0024 ± 0.0001 | > 100 | 106 ± 19 (≈ 66.4 µg/mL) | > 100 | > 100 | > 100 | > 100 | > 100 | > 100 | > 100 | > 100 | > 100 | 30.1 ± 1.5 |  |  |  | 142 (≈ 89 µg/mL) |
